Reference: ChEMBL document CHEMBL1134918, “General solid-phase method to prepare novel cyclic ketone inhibitors of the cysteine protease cruzain” (Bioorg Med Chem Lett, 2002)

Assays:
Procathepsin L = Procathepsin L (Homo sapiens, UniProt P07711); assay: Affinity for human Cathepsin L
Cathepsin B = Cathepsin B (Homo sapiens, UniProt P07858); assay: Affinity for human Cathepsin B
Cruzipain = Cruzipain (Trypanosoma cruzi, UniProt P25779); assay: Affinity for cysteine protease (Cruzipain) of Chagas' disease
Chain of Cruzipain (P25779 whole entry): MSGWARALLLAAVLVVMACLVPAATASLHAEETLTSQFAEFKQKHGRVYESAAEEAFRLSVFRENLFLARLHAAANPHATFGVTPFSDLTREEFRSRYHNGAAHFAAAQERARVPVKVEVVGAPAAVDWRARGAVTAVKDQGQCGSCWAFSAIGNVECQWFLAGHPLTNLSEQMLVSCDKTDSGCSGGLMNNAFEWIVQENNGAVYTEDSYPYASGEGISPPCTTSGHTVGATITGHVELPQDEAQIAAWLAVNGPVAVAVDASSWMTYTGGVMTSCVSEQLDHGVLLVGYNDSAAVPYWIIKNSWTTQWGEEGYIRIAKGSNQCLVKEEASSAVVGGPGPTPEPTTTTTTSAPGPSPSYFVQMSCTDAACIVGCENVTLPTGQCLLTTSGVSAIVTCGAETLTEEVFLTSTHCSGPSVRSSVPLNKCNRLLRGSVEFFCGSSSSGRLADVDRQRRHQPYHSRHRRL

Chain of Procathepsin L (P07711 whole entry): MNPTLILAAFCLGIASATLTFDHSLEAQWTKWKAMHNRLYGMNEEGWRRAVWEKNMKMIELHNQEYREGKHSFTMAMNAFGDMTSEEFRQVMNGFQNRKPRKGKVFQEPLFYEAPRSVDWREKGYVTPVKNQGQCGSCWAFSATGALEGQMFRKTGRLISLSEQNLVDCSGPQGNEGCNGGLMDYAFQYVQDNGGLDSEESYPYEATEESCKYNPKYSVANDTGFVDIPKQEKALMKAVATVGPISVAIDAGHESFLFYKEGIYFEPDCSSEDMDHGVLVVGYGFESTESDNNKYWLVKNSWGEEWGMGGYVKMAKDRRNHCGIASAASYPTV

Ki (Procathepsin L) [nM] | Ki (Cathepsin B) [nM] | Ki (Cruzipain) [nM] | Compound
597 | 12900 | 384 | CC(C)N1CC(=O)C(NC(=O)[C@H](Cc2ccccc2)NC(=O)OCc2ccccc2)CC1=O (stereo partly specified)
 | > 1000 |  | CC(C)C[C@H](NC(=O)OCc1ccccc1)C(=O)NC1CN(C(=O)[C@H](CC(C)C)NC(=O)OCc2ccccc2)CC1=O (stereo partly specified)
865 | > 10000 | 983 | COCCN1CC(=O)C(NC(=O)[C@H](Cc2ccccc2)NC(=O)OCc2ccccc2)CC1=O (stereo partly specified)
232 | 10500 | 366 | CCCN1CC(=O)C(NC(=O)[C@H](Cc2ccccc2)NC(=O)OCc2ccccc2)CC1=O (stereo partly specified)
299 | 4550 | 274 | CC(C)CN1CC(=O)C(NC(=O)[C@H](Cc2ccccc2)NC(=O)OCc2ccccc2)CC1=O (stereo partly specified)
 | > 10000 |  | CC(C)C[C@@H](C(=O)NCC(=O)CNS(=O)(=O)c1ccc(Oc2ccccc2)cc1)c1cccc(-c2ccccc2)c1
 |  | 53.2 | O=C(N[C@@H](Cc1ccccc1)C(=O)NC1CC(=O)N(CCc2ccccc2)CC1=O)OCc1ccccc1 (stereo in doubt)
 |  | 16.3 | O=C(N[C@@H](Cc1ccccc1)C(=O)NC1CC(=O)N(CCCc2ccccc2)CC1=O)OCc1ccccc1 (stereo in doubt)
 |  | 202 | O=C(N[C@@H](Cc1ccccc1)C(=O)NC1CC(=O)N(Cc2ccccc2)CC1=O)OCc1ccccc1 (stereo in doubt)
19 | 693 | 16 | O=C(N[C@@H](Cc1ccccc1)C(=O)NC1CC(=O)N(CCCc2ccccc2)CC1=O)OCc1ccccc1 (stereo in doubt; 4e)
93 | 6170 | 53 | O=C(N[C@@H](Cc1ccccc1)C(=O)NC1CC(=O)N(CCc2ccccc2)CC1=O)OCc1ccccc1 (stereo in doubt; 4f)
377 | 13200 | 202 | O=C(N[C@@H](Cc1ccccc1)C(=O)NC1CC(=O)N(Cc2ccccc2)CC1=O)OCc1ccccc1 (stereo in doubt; 4g)
